What is called EC50 is the midpoint of the concentration-response curve. Low readings indicate higher potency in that assay, high ones lower potency in that assay.

The test system of data set [1] is midkine promoter coupled to a luciferase reporter gene. The data set can be described thus: Midkine promoter-luciferase reporter screen in stably transfected HEK293 cells, dose-response. Format: cell-based. The conditions noted are these: for EC50: Homo sapiens, HEK293 reporter cells, midkine expression upregulated with retinoic acid. The method, then: A library of compounds was screened for activity to reduce expression of midkine in vitro. HEK293 cells were stably transfected with the pGL4 vector comprising a midkine promoter coupled to a luciferase reporter gene. […] Changes in luciferase production were measured to access the inhibitory activity of the test compounds. The primary screen included 44,000 test compounds. Test compounds that reduced cell viability by more than 50% were eliminated from the screen. From the primary screen, 351 test compounds were further examined. From the secondary screen, 78 test compounds were examined using a dose-response assay, and the EC50 for the test compounds was determined.
In order to find a therapeutic compound that inhibits MDK expression, a MDK reporter cell line by stably transfecting HEK293 cells with a MDK promoter-fused luciferase construct was developed. This modified cell line was used to screen 44,000 compounds at the Drug Discovery Center at the University of Cincinnati. See Example 1. Detection of luciferase activity was used to identify MDK inhibitors.
A general note: In a reporter assay the amount or activity of a reporter protein is the signal.

A further data set has as its system AKT. The data set can be described thus: Immunoblot of AKT phosphorylation in H441 cells. Format: cell-based, human. The conditions noted are these: H441, dose- and time-dependent. The method, then:
(§1) Immunoblot analysis: cells were lysed in ice-cold lysis buffer [1% Triton X-100, 20 mM Tris-HCl (pH 8.0), 137 mM NaCl, 10% glycerol (v/v), 2 mM EDTA, 1 mM sodium orthovanadate (v/v), 1 mM phenylmethylsulfonyl fluoride]. Cell lysates were clarified by centrifugation (10 min at 15,000×g at 4° C.) and protein concentration determined using the BCA protein assay (Thermo Fisher Scientific, Rockford, Ill.). Equal amounts of protein were separated on an SDS-PAGE gel. The gel was electrophoretically transferred to a Hybond PVDF transfer membrane (Amersham, Arlington Heights, Ill.) and incubated with primary and secondary antibodies according to the Supersignal® West Pico chemiluminescence protocol (Pierce, Rockford, Ill.). Antibody specific for β-actin antibody was obtained from Sigma (St. Louis, Mo.) and antibody specific for human MDK was obtained from Abcam (Cambridge, UK). Antibody specific for caspase-3, PI3 kinase p85, phosphorylated-PI3K p85 (Tyr458)/p55 (Tyr199), AKT, phosphorylated-AKT (Ser473), Bad, XIAP, survivin were obtained from Cell Signaling Technology (Beverly, Mass.). Antibody specific for VEGF was purchased from Santa Cruz Biotechnology (Santa Cruz, Calif.). Secondary horseradish peroxidase-conjugated antibodies were obtained from Jackson Immunoresearch Laboratories (West Grove, Pa.). […]
(Immunoblotting shows a protein as a band on a membrane.)

Data set [2] in a line: Systemic toxicity in mice (body weight, serum AST and ALT). The format is in vivo, BALB/c nude mice. Here is the method:
(§2) Mouse experiments: human lung cancer xenografts were established in 6-wk-old female BALB/c nude mice (Charles River Laboratories Japan, Kanagawa, Japan) by subcutaneous (s.c.) inoculation of H441 cells (1×10^6/50 μl) mixed with Matrigel® (BD Pharmingen, San Diego, Calif.; 50 μl) into the dorsal flank (Watanabe N, et al., Clin. Cancer Res. 2008; 14:4631-9). The mice were randomly assigned into three groups (n=8 per group) 14 days after tumor inoculations. One group of mice was intraperitonially injected with 100 μl solution containing iMDK (9 mg/kg) three days per week (on days 1, 3, 5, 8, 10) and another group of mice was injected five days per week (on days 1, 2, 3, 4, 5, 8, 9, 10). DMSO was injected into the control group. Tumors were measured two to three times a week, and tumor volume was calculated as a×b^2×0.5, where a and b were large and small diameters, respectively. On day 10, all mice were sacrificed after body weight was measured and tumors were removed and prepared for histology. For analysis of serum AST and ALT, blood was drawn from the heart 48 hours after intraperitonially injected with 100 μl solution containing iMDK (9 mg/kg). DMSO was injected into the control group and four mice were used for each group.

For data set [3], the system named is HEK293 embryonic kidney cells. The data set can be described thus: Cell viability assay, trypan blue exclusion, HEK293. Format: cell-based. Conditions: HEK293, 0 to 500 nM, 48 hours after treatment. Here is the method: Cell viability assay: H441 cells, A549 cells, H520 cells, HEK293 cells and NHLF were plated in 24-well plates at a density of 1×10^5 cells and cultured at 37° C. for 24 hours. Medium was removed by aspiration and replaced with fresh culture medium containing iMDK dissolved in DMSO (10, 50, 100, 500 nmol/L). DMSO alone was used as the control. Cells were treated for 48 hours and collected by trypsinization. Viable cells were assessed by trypan blue exclusion. Recombinant MDK was purchased from R&D Systems (Minneapolis, Minn.) and reconstituted in water for block experiments. For MDK block experiments, H441 cells were cultured in Dulbecco's modified Eagle medium supplemented with 1% heat-inactivated fetal bovine overnight and recombinant MDK (25 nM) or/and iMDK (25 nM) was added for an additional 48 hours.

The subject of another data set is PI3K. The data set can be described thus: Immunoblot of PI3K phosphorylation in H441 cells. Conditions: H441, dose- and time-dependent. The format is cell-based, human. Here is the method:
as §1

For another data set, the system named is survivin. The data set can be described thus: Immunoblot of survivin in H441 cells. Format: cell-based, human. The conditions noted are these: H441, dose- and time-dependent. The method, then: as §1
Another data set has as its system caspase-3. The data set can be described thus: Immunoblot of caspase-3 cleavage in H441 cells. Conditions: H441, even at the lowest concentrations (5 nM), 48 hours after treatment. The format is cell-based, human. Here is the method: as §1
In data set [4] the test system is H441 cells. The data set can be described thus: Flow cytometric analysis for apoptosis (sub-G0/G1 DNA content), H441. The format is cell-based, human. Conditions: 72 hours, DMSO control 1.24%. Here is the method: (§3) Flow cytometric analysis for apoptosis: cells were plated in 24-well plates at a density of 0.5×10^5 cells per well 1 day before the treatments. After 72 hours, cells were harvested and washed once with PBS. Cells were resuspended in PBS containing 0.2% Triton X-100 and 1 mg/ml RNase for 5 min at room temperature and then stained with propidium iodide at 50 μg/ml to determine sub-G0/G1 DNA content using a FACScan. Doublets, cell debris, and fixation artifacts were gated out, and sub-G0/G1 DNA content was determined using Cell Quest Ver. 3.3 software.

A further data set has as its system XIAP. The data set can be described thus: Immunoblot of XIAP in H441 cells. The format is cell-based, human. Conditions: H441, dose- and time-dependent. The method, then: as §1
In a further data set the test system is NHLF cells. The data set can be described thus: Flow cytometric analysis for apoptosis (sub-G0/G1 DNA content), NHLF. The format is cell-based, human. Conditions: DMSO control 0.32%. Here is the method:
as §3
Background: In flow cytometry, cells or beads pass a laser one at a time.

Data set [5] has as its system H520 lung squamous cell carcinoma cells. The data set can be described thus: Cell viability assay, trypan blue exclusion, H520. Conditions: H520, 0 to 500 nM, 48 hours after treatment. Format: cell-based, human. An excerpt:
(§4) Cell Lines and Culture Conditions: the human pulmonary adenocarcinoma cells H322, H358, H441 and A549 and the human lung squamous cell carcinoma cells H520 were obtained from the American Type Culture Collection (Manassas, Va.) and grown in RPMI 1640 (H322, H358, H520) or high glucose Dulbecco's modified Eagle medium (H441, A549 cells) supplemented with 10% heat-inactivated fetal bovine serum. The human malignant mesothelioma cells ACC-MESO-1 (MESO-1) obtained from JCRB Cell Bank (Osaka, Japan) and the human lung squamous cell carcinoma cells SQ5 were grown in RPMI 1640 supplemented with 10% heat-inactivated fetal bovine serum. The normal human lung fibroblasts (NHLF) obtained from Clonetics (San Diego, Calif.) were grown in high glucose Dulbecco's modified Eagle medium. All cell lines were cultured in 10% CO2 at 37° C.
Cell viability assay: H441 cells, A549 cells, H520 cells, HEK293 cells and NHLF were plated in 24-well plates at a density of 1×10^5 cells and cultured at 37° C. for 24 hours. Medium was removed by aspiration and replaced with fresh culture medium containing iMDK dissolved in DMSO (10, 50, 100, 500 nmol/L). DMSO alone was used as the control. Cells were treated for 48 hours and collected by trypsinization. Viable cells were assessed by trypan blue exclusion. […]

In another data set the test system is BAD. The data set can be described thus: Immunoblot of BAD in H441 cells. Format: cell-based, human. The conditions noted are these: H441, dose- and time-dependent. The method, then:
as §1

Data set [6] relates to H441 cells. The data set can be described thus: Hoechst staining for apoptotic morphology in H441 cells. The format is cell-based, human. Conditions: H441, Hoechst 33342, 48 hours after treatment. Here is the method: Hoechst staining: the morphologic characteristics of apoptosis were evaluated using Hoechst 33342 dye (Molecular Probes, Eugene, Oreg.), which stains DNA. Cells were incubated with 1 μg/ml Hoechst dye and then visualized under a fluorescence microscope (IX81, Olympus Medical Systems Corp., Tokyo, Japan) (Ogawa N, et al., Int. J. Cancer. 1997; 73:367-70).

Data set [7] has as its system H441 lung adenocarcinoma cells. The data set can be described thus: Cell viability assay, trypan blue exclusion, H441. The format is cell-based, human.
From the text: as §4
The following day 100 pmol of Smart Pool MK siRNA or nontargeting siRNA (Dharmacon, Perbio Science, France) was transfected using 2 μl Lipofectamine 2000 (Invitrogen Life Technologies, Carlsbad, Calif.) according to the manufacturer's instructions. […]
Cell viability assay: H441 cells, A549 cells, H520 cells, HEK293 cells and NHLF were plated in 24-well plates at a density of 1×10^5 cells and cultured at 37° C. for 24 hours. […] Viable cells were assessed by trypan blue exclusion. […]

The test system of data set [8] is xenografts derived from H441 lung adenocarcinoma cells. The data set can be described thus: H441 lung adenocarcinoma xenograft in nude mice. Format: in vivo, BALB/c nude mice. The conditions noted are these: 9 mg/kg intraperitoneal. Here is the method: as §2
For immunohistochemistry, sections were sequentially deparaffinized through a series of xylene, graded ethanol, and water immersion steps. After being autoclaved in 0.2% citrate buffer for 15 minutes, sections were incubated with 3% hydrogen peroxide for 30 minutes to block endogenous peroxidase activity. A primary antibody specific for PI3 kinase p85, phosphorylated-PI3K p85 (Tyr458)/p55 (Tyr199) from Cell Signaling Technology and for MDK from Abcam were used. Specimens were incubated overnight at 4° C. with a 1:200 dilution of antibody followed by three washes with TBS. The slides were treated with streptoavidin-biotin complex (Envision System labeled polymer, horseradish peroxidase (HRP), Dako, Carpinteria, Calif.) for 60 minutes at a dilution of 1:100. […]

Where [9] appears, read: 48 hours after 9 mg/kg intraperitoneal.

Molecule `O=c1oc2ccccc2cc1-c1cn2cc(Cc3ccc(Cl)cc3)sc2n1` [Example compound 1] registered an EC50 in data set [1] of 14 nM.
As to `O=c1oc2ccccc2cc1-c1cn2cc(Cc3ccc(F)cc3)sc2n1` [Example compound 2, 3-[2-(4-fluorobenzyl)imidazo[2,1-beta][1,3]thiazol-6-yl]-2H-chromen-2-one], in the data set with AKT, the “Phosphorylation of AKT” value was “suppressed”. In addition, the body weight entry in [2] (9 mg/kg intraperitoneal, day 10) is “did not influence”. Also, in [2] (setting [9]), the “serum level of ALT” value is listed as “did not influence”. Also, the “serum level of AST” value in [2] (setting [9]) is listed as “did not influence”. Also, the cell growth entry was “dose-dependently inhibited cell growth” in data set [3]; “dose-dependently inhibited cell growth” in data set [5]; “dose-dependently inhibited cell growth” in data set [7] (H441, 0 to 500 nM, 48 hours after treatment). Besides, the “Phosphorylation of PI3K” value in the data set on PI3K was “suppressed”. Moreover, the survivin expression result in the data set on survivin is “reduced”. Also, the “cleaved forms of caspase-3” value in the data set on caspase-3 is “induced”. Besides, the “sub-G0/G1 DNA content” value with H441 cells [4] (H441, 10 nM) is 37.00%; in the data set with H441 cells [4] (H441, 25 nM) it was 60.91%. Moreover, the XIAP expression result with XIAP is on record as “reduced”. The “sub-G0G1 DNA content” value worked out at 0.52% in the data set on NHLF cells (10 nM) and 1.51% in the data set on NHLF cells (25 nM). The BAD expression result in the data set on BAD is “induced”. In addition, the nuclear fragmentation entry in the data set on H441 cells [6] is reported as “induced nuclear fragmentation in a dose-dependent manner”. Moreover, in [1] (reporter screen, dose response), the “activity to reduce expression of midkine (in words)” value was “exceptional activity”. Besides, the “suppression of cell growth with pretreatment of recombinant MDK” value in [7] (H441, recombinant MDK 25 nM, iMDK 25 nM, 48 hours) is given as “partially blocked”. Further, in data set [8] (3 or 5 times a week), the “volume of the tumors versus control group” value is reported as “significantly lower”. The lung tumor growth entry in data set [8] (3 or 5 times a week, from 14 days after inoculation) is “arrested”. Further, the “Tunel staining, DNA fragmentation in tumors” value in [8] (xenograft tumors) is recorded as “detected DNA fragmentation”.
`O=c1oc2ccccc2cc1-c1cn2cc(Cc3ccc(Br)cc3)sc2n1` [Example compound 3]: in data set [1], a half-maximal response (EC50) required 12.2 nM.
In data set [1], `O=c1oc2ccccc2cc1-c1cn2cc(Cc3cc(Cl)ccc3Cl)sc2n1` [Example compound 4] returned an EC50 of 15.9 nM.

These data come from patent US10391084B2, “Methods and compositions to treat cancer” (CHILDREN'S HOSPITAL MEDICAL CENTER, priority 2013, dated 2019).
